In ChEMBL document CHEMBL2057178, “Novel synthetic route to the C-nucleoside, 2-deoxy benzamide riboside” (Bioorg Med Chem Lett, 2012):
Activity calls are given as the source filed them. The calls are words filed in the database; no cut-off is given here.

Experiments:
Assay type in all cases: functional, cell-based
MCF7 [1] = test: Growth inhibition of human MCF7 cells at 50 uM
PC-3 [2] = test: Growth inhibition of human PC3 cells at 500 uM
HCT-116 = test: Growth inhibition of human HCT116 cells up to 1 mM relative to DMSO-treated control
T47D = test: Growth inhibition of human T47D cells up to 1 mM relative to DMSO-treated control
HT-29 = test: Growth inhibition of human HT-29 cells up to 1 mM relative to DMSO-treated control
PC-3 [3] = test: Growth inhibition of human PC3 cells up to 1 mM relative to DMSO-treated control
MCF7 [4] = test: Growth inhibition of human MCF7 cells up to 1 mM relative to DMSO-treated control
DU-145 = test: Growth inhibition of human DU145 cells up to 1 mM relative to DMSO-treated control
NCI-H460 = test: Growth inhibition of human H460 cells up to 1 mM relative to DMSO-treated control
RKO = test: Growth inhibition of human RKO cells up to 1 mM relative to DMSO-treated control

Question: How did the “growth inhibition (GI)” value (MCF7 [1]) turn out when `NC(=O)c1cccc([C@@H]2O[C@H](CO)[C@@H](O)[C@H]2O)c1` was run?
Answer: Active

Question: How did the “growth inhibition (GI)” value (PC-3 [2]) turn out when `NC(=O)c1csc([C@@H]2O[C@H](CO)[C@@H](O)[C@H]2O)n1` was run?
Answer: Active

Question: `NC(=O)c1cccc([C@H]2C[C@H](O)[C@@H](CO)O2)c1` (racemic) was tested. Which “growth inhibition (GI)” value (HCT-116) did it give?
Answer: inactive

Question: What about the “growth inhibition (GI)” value (T47D) of the same compound?
Answer: inactive

Question: And the “growth inhibition (GI)” value (HT-29)?
Answer: inactive

Question: What about the “growth inhibition (GI)” value (PC-3 [3]) of the same compound?
Answer: inactive

Question: And the “growth inhibition (GI)” value (MCF7 [4])?
Answer: inactive

Question: What about the “growth inhibition (GI)” value (DU-145) of the same compound?
Answer: inactive

Question: What about the “growth inhibition (GI)” value (NCI-H460) of the same compound?
Answer: inactive

Question: What about the “growth inhibition (GI)” value (RKO) of the same compound?
Answer: inactive
